The compounds below were run against human VR1 (Homo sapiens, UniProt Q8NER1) (assay: Acid stimulation assay (acid-induced intracellular calcium change, FDSS 6000)). Conditions: final assay buffer pH5.8, 15 min pre-incubation, read-out: IC50 (nM) Low pH.
human VR1, sequence (Q8NER1 whole entry): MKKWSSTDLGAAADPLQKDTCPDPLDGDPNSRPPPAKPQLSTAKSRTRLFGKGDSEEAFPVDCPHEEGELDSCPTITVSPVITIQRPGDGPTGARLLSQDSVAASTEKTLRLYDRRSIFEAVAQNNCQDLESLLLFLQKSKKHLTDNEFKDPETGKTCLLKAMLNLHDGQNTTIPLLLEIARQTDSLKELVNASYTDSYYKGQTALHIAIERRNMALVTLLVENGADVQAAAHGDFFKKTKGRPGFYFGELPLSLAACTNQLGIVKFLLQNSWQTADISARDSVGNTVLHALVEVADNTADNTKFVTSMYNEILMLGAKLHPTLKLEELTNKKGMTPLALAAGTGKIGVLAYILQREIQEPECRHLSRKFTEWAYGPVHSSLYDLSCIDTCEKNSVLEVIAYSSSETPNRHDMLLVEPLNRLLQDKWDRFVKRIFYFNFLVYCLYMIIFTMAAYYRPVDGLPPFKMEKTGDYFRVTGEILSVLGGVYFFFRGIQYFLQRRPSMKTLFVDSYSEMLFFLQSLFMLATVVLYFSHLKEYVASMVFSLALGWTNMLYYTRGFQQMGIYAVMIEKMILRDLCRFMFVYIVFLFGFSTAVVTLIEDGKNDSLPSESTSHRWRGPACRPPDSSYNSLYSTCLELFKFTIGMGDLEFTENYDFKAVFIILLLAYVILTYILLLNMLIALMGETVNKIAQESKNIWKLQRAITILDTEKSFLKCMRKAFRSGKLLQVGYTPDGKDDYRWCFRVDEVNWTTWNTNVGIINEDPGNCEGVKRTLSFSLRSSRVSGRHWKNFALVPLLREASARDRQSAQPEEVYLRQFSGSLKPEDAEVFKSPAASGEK
Assay type: cell-based
Description: VR1 antagonistic activity can be determined by the Ca^2+ imaging assay using human VR1 highly expressing cells. The cells that highly express human VR1 receptors are obtainable from several different conventional methods. The one standard method is cloning from human Dorsal Root Ganglion (DRG) or kidney according to the methods such as described in the journal article; Nature, 389, pp 816-824, 1997. Alternatively VR1 receptors highly expressing human keratinocytes are also known and published in the journal article (Biochemical and Biophysical Research Communications, 291, pp 124-129, 2002). […] Furthermore, the method to up regulate human VR1 gene, which is usually a silent gene or don't produce detectable level of VR1 receptors, is also available to obtain propriety cells. Such genetic modification method was described in detail; Nat. Biotechnol., 19, pp 440-445, 2001.
The cells that express human VR1 receptors were maintained in culture flask at 37° C. in an environment containing 5% CO2 until use in the assay. The intracellular Ca^2+ imaging assay to determine VR1 antagonistic activities were done by following procedures.
The culture medium was removed from the flask and fura-2/AM fluorescent calcium indicator was added to the flask at a concentration of 5 μM in the medium. The flask was placed in CO2 incubator and incubated for 1 hour. Then the cells expressing the human VR1 receptors were detached from the flask follow by washing with phosphate buffer saline, PBS(−) and re-suspended in assay buffer. The 80 tit of aliquot of cell suspension (3.75×10^5 cells/ml) was added to the assay plate and the cells were spun down by centrifuge (950 rpm, 20° C., 3 minutes).
(§1) The Acid-induced changes in the intracellular calcium concentration were monitored using FDSS 6000 (Hamamatsu Photonics, Japan), a fluorometric imaging system. The cell suspension in resting buffer (HBSS supplemented with 10 mM HEPES, pH 7.4) were pre-incubated with varying concentrations of the test compounds or resting buffer (buffer control) for 15 minutes at room temperature under the dark condition. The cells were automatically added the stimulating solution (HBSS supplemented with MES, final assay buffer pH5.8) by the FDSS 6000.
as §1, with “7.4) was” for “7.4) were”, “under” for “under the”, “dark conditions.” for “dark condition.”, “added to” for “added”
Work on Cc1cc([C@@H](C)NC(=O)c2cnc3cc(C(C)(C)C)ccc3c2C)ccc1NS(C)(=O)=O [Example 42, 7-TERT-BUTYL-4-METHYL-N-((1R)-1-{3-METHYL-4-[(METHYLSULFONYL)AMINO]PHENYL}-ETHYL)QUINOLINE-3-CARBOXAMIDE] yielded an IC50 of 532 nM. With Cc1cc([C@@H](C)NC(=O)c2cnc3cc(C(F)(F)F)ccc3c2)c(F)cc1NS(C)(=O)=O [Example 43, N-((1R)-1-{2-FLUORO-5-METHYL-4-[(METHYLSULFONYL)AMINO]PHENYL}ETHYL)-7-(TRIFLUOROMETHYL)QUINOLINE-3-CARBOXAMIDE] the IC50 was 30 nM. In the case of CCOc1ccc2cc(C(=O)N[C@H](C)c3ccc(NS(C)(=O)=O)c(C)c3)ccc2n1 [Example 44, 2-ETHOXY-N-((1R)-1-{3-METHYL-4-[(METHYLSULFONYL)AMINO]PHENYL}ETHYL)-QUINOLINE-6-CARBOXAMIDE], the IC50 is reported as 15 nM. Cc1cc([C@@H](C)NC(=O)c2ccc3cc(C(F)(F)F)ccc3c2)ccc1NS(C)(=O)=O [Example 51, N-((1R)-1-{3-METHYL-4-[(METHYLSULFONYL)AMINO]PHENYL}ETHYL)-6-(TRIFLUORO-METHYL)-2-NAPHTHAMIDE] was tested, and the IC50 was 1 nM. Work on Cc1cc([C@@H](C)NC(=O)c2ccc3cc(C4CC4)ccc3c2)c(Cl)cc1NS(C)(=O)=O [Example 52, (R)—N-(1-(2-CHLORO-5-METHYL-4-(METHYLSULFONAMIDO)PHENYL)ETHYL)-6-CYCLOPROPYL-2-NAPHTHAMIDE] yielded an IC50 of 22 nM. Cc1cc([C@@H](C)NC(=O)c2cnc3cc(C(F)(F)F)ccc3c2)c(Cl)cc1NS(C)(=O)=O [Example 53, (R)—N-(1-(2-CHLORO-5-METHYL-4-(METHYLSULFONAMIDO)PHENYL)ETHYL)-7-(TRIFLUOROMETHYL)QUINOLINE-3-CARBOXAMIDE] showed an IC50 of 36 nM. Cc1cc([C@@H](C)NC(=O)c2ccc3cc(C(F)(F)F)ccc3c2)ncc1NS(C)(=O)=O [Example 54, N-((1R)-1-{4-METHYL-5-[(METHYLSULFONYL)AMINO]PYRIDIN-2-YL}ETHYL)-6-(TRIFLUOROMETHYL)-2-NAPHTHAMIDE] gave an IC50 of 12 nM. With Cc1cc([C@@H](C)NC(=O)c2ccc3cc(C(F)(F)F)ccc3n2)c(Cl)cc1NS(C)(=O)=O [Example 57, (R)—N-(1-(2-CHLORO-5-METHYL-4-(METHYLSULFONAMIDO)PHENYL)ETHYL)-6-(TRIFLUOROMETHYL)QUINOLINE-2-CARBOXAMIDE] the IC50 was 58 nM. In the case of Cc1cc([C@@H](C)NC(=O)c2ccc3cc(C4(C)CC4)ccc3c2)ncc1NS(C)(=O)=O [Example 58, (R)—N-(1-(4-METHYL-5-(METHYLSULFONAMIDO)PYRIDIN-2-YL)ETHYL)-6-(1-METHYL-CYCLOPROPYL)-2-NAPHTHAMIDE], the IC50 is reported as 7 nM. Cc1cc([C@@H](C)NC(=O)c2ccc3nc(N4CCCC4)ccc3c2)c(F)cc1NS(C)(=O)=O [Example 68, (R)—N-(1-(2-FLUORO-5-METHYL-4-(METHYLSULFONAMIDO)PHENYL)ETHYL)-2-(PYRROLIDIN-1-YL)QUINOLINE-6-CARBOXAMIDE] was tested, and the IC50 was 293 nM. Compound Cc1cc([C@@H](C)NC(=O)c2ccc3nc(C(F)(F)F)cc(N4CCCCC4)c3c2)c(F)cc1NS(C)(=O)=O [Example 70, 4-PIPERIDIN-1-YL-2-TRIFLUOROMETHYL-QUINOLINE-6-CARBOXYLIC ACID [(R)-1-(2-FLUORO-4-METHANESULFONYLAMINO-5-METHYL-PHENYL)-ETHYL]-AMIDE] has an IC50 of 26 nM. Cc1cc([C@@H](C)NC(=O)c2ccc3nc(C(F)(F)F)cc(N4CCC(F)(F)CC4)c3c2)c(F)cc1NS(C)(=O)=O [Example 73, 4-(4,4-DIFLUORO-PIPERIDIN-1-YL)-2-TRIFLUOROMETHYL-QUINOLINE-6-CARBOXYLIC ACID [(R)-1-(2-FLUORO-4-METHANESULFONYLAMINO-5-METHYL-PHENYL)-ETHYL]-AMIDE] was tested, and the IC50 was 29 nM. For C[C@@H](NC(=O)c1ccc2cc(C(F)(F)F)ccc2c1)c1ccc(NS(C)(=O)=O)c(CO)c1 [Example 74, N-((1R)-1-{3-(HYDROXYMETHYL)-4-[(METHYLSULFONYL)AMINO]PHENYL}ETHYL)-6-(TRIFLUOROMETHYL)-2-NAPHTHAMIDE], the IC50 was 13 nM. Compound Cc1cc([C@@H](C)NC(=O)c2ccc3nc(C(F)(F)F)cc(N4CCC(C(F)(F)F)CC4)c3c2)c(F)cc1NS(C)(=O)=O [Example 76, 2-TRIFLUOROMETHYL-4-(4-TRIFLUOROMETHYL-PIPERIDIN-1-YL)-QUINOLINE-6-CARBOXYLIC ACID [(R)-1-(2-FLUORO-4-METHANESULFONYLAMINO-5-METHYL-PHENYL)-ETHYL]-AMIDE] has an IC50 of 48 nM. Work on Cc1cc([C@@H](C)NC(=O)c2ccc3ccc(C(F)(F)F)cc3c2)ccc1NS(C)(=O)=O [Example 77] yielded an IC50 of 4 nM. Cc1cc([C@@H](C)NC(=O)c2ccc3nc(N4CCOCC4)ccc3c2)c(F)cc1NS(C)(=O)=O [Example 81, ((R)—N-(1-(2-FLUORO-5-METHYL-4-(METHYLSULFONAMIDO)PHENYL)ETHYL)-2-MORPHOLINOQUINOLINE-6-CARBOXAMIDE] showed an IC50 of 748 nM. Cc1cc([C@@H](C)NC(=O)c2ccc3nc(C(F)(F)F)nc(N4CCCCC4)c3c2)c(F)cc1NS(C)(=O)=O [Example 84, 4-PIPERIDIN-1-YL-2-TRIFLUOROMETHYL-QUINAZOLINE-6-CARBOXYLIC ACID [(R)-1-(2-FLUORO-4-METHANESULFONYLAMINO-5-METHYL-PHENYL)-ETHYL]-AMIDE] showed an IC50 of 51 nM. Cc1cc([C@@H](C)NC(=O)c2ccc3nc(C(F)(F)F)nc(N4CCN(c5cccc(Cl)c5)CC4)c3c2)c(F)cc1NS(C)(=O)=O [Example 85, 4-[4-(3-CHLORO-PHENYL)-PIPERAZIN-1-YL]-2-TRIFLUOROMETHYL-QUINAZOLINE-6-CARBOXYLIC ACID [(R)-1-(2-FLUORO-4-METHANESULFONYLAMINO-5-METHYL-PHENYL)-ETHYL]-AMIDE] was tested, and the IC50 was 60 nM. Cc1cc([C@@H](C)NC(=O)c2ccc3nc(C(F)(F)F)nc(N4CC(C)OC(C)C4)c3c2)c(F)cc1NS(C)(=O)=O (stereo partly drawn) [Example 86, 4-(2,6-DIMETHYL-MORPHOLIN-4-YL)-2-TRIFLUOROMETHYL-QUINAZOLINE-6-CARBOXYLIC ACID [(R)-1-(2-FLUORO-4-METHANESULFONYLAMINO-5-METHYL-PHENYL)-ETHYL]-AMIDE] was tested, and the IC50 was 7 nM. In the case of Cc1cc([C@@H](C)NC(=O)c2cnc3cc(C4CC4)cnc3c2)c(F)cc1NS(C)(=O)=O [Example 87, 7-CYCLOPROPYL-[1.5]NAPHTHYRIDINE-3-CARBOXYLIC ACID [(R)-1-(2-FLUORO-4-METHANESULFONYLAMINO-5-METHYL-PHENYL)-ETHYL]-AMIDE], the IC50 is reported as 111 nM. COc1ccccc1N1CCN(c2nc(C(F)(F)F)nc3ccc(C(=O)N[C@H](C)c4cc(C)c(NS(C)(=O)=O)cc4F)cc23)CC1 [Example 88, 4-[4-(2-METHOXY-PHENYL)-PIPERAZIN-1-YL]-2-TRIFLUOROMETHYL-QUINAZOLINE-6-CARBOXYLIC ACID [(R)-1-(2-FLUORO-4-METHANESULFONYLAMINO-5-METHYL-PHENYL)-ETHYL]-AMIDE] gave an IC50 of 50 nM. Cc1cc([C@@H](C)NC(=O)c2ccc3nc(C(F)(F)F)cc(N4CC[C@@H](O)C4)c3c2)c(F)cc1NS(C)(=O)=O [Example 90, 4-((R)-3-HYDROXYPYRROLIDIN-1-YL)-2-TRIFLUOROMETHYLQUINOLINE-6-CARBOXYLIC ACID [(R)-1-(2-FLUORO-4-METHANESULFONYLAMINO-5-METHYLPHENYL)ETHYL]AMIDE] gave an IC50 of 112 nM. Cc1cc([C@@H](C)NC(=O)c2ccc3nc(C(F)(F)F)cc(N4CC[C@H](O)C4)c3c2)c(F)cc1NS(C)(=O)=O [Example 91, 4-((S)-3-HYDROXY-PYRROLIDIN-1-YL)-2-TRIFLUOROMETHYLQUINOLINE-6-CARBOXYLIC ACID [(R)-1-(2-FLUORO-4-METHANESULFONYLAMINO-5-METHYLPHENYL)ETHYL]AMIDE] gave an IC50 of 366 nM. Cc1cc([C@@H](C)NC(=O)c2ccc3nc(C(F)(F)F)cc(N4CC(F)(F)C4)c3c2)c(F)cc1NS(C)(=O)=O [Example 92, 4-(3,3-DIFLUOROAZETIDIN-1-YL)-2-TRIFLUOROMETHYLQUINOLINE-6-CARBOXYLIC ACID [(R)-1-(2-FLUORO-4-METHANESULFONYLAMINO-5-METHYLPHENYL)-ETHYL]AMIDE] was tested, and the IC50 was 24 nM. Cc1cc([C@@H](C)NC(=O)c2ccc3nc(C(F)(F)F)cc(N4CCC[C@@H]4CO)c3c2)c(F)cc1NS(C)(=O)=O [Example 93, 4-((R)-2-HYDROXYMETHYLPYRROLIDIN-1-YL)-2-TRIFLUOROMETHYLQUINOLINE-6-CARBOXYLIC ACID [(R)-1-(2-FLUORO-4-METHANESULFONYLAMINO-5-METHYLPHENYL)ETHYL]AMIDE] showed an IC50 of 370 nM.
